In US5466809A (Toronto Research Chemicals, Inc., priority 1994, dated 1995):
≈ marks a conversion by molar mass, not a printed value.

Experiments:
bone marrow cells [1] = test: In vivo bone marrow CFU formation and bone marrow cellularity, dose dependent effect; parameters: species or system C57BL/6 mice; conditions: for Mean of CFU Formation / Mean of Cellularity: 4 days
From the text: (§1) Assay for Bone Marrow Cell Proliferation Induced by Swansonine Analogues. Pathogen-free C57BL/6 mice at 8-14 weeks of age were quarantined for one week prior to their use in the experiments described below. Mice were inoculated intraperitoneally twice daily with a designated dose of swainsonine or an analogue of swainsonine for a period of four days. Eighteen hours following the last injection, the mice were sacrificed, bone marrow cells were obtained using standard technology (S. C. White et al., J. Natl. Cancer Inst. 83 1125, 1991). Cellularity of the bone marrow cells so obtained was determined by directly counting the cells after they were flushed from the femurs and tibia of the mice. The cells were processed according to the procedure described in the GIBCO-BRL Mouse Bone Stem Cell Proliferation Kit, and the number of colony forming units (CFU) was assessed using the procedures also described in the kit. For kinetic experiments, mice were administered 10 ug of the analogue (this was the optimum dose in all cases) twice daily for the designated number of days. The experiments were designed so that all regimens terminated on the same day. Eighteen hours after the last injection, the mice were sacrificed and bone marrow cells were obtained and processed as described above.

[2] = system: N-linked oligosaccharide processing; test: L-PHA lectin sensitivity assay for inhibition of N-linked oligosaccharide processing; assay type: cell-based; conditions: L-PHA assay; 3H-thymidine incorporation; read-out: D50 Values (Inhibition), L-PHA assay
Experimental: This test also indicates whether the compounds enter tumor cells and measures the degree of toxicity of the compounds for cells. The test is described in J. W. Dennis, Cancer Research 46:5131, 1986.
Essentially, 2×10^4 cells are placed in individual wells of a 96-well microtest plate, wherein the wells contain serial dilutions of the compounds to be tested. […] […] The cells are then harvested and the amount of radioactivity incorporated into the host cell DNA is measured in a liquid scintillation counter. The amount of radioactivity present in cells in wells in the absence of L-PHA reflects the toxicity of the test compound and the amount of radioactivity present in the presence of L-PHA reflects the level of inhibition of oligosaccharide processing induced by the test compound.

[3] = target: T1, Jack Bean alpha-mannosidase (Canavalia ensiformis, UniProt C0HJB3); test: Jack Bean alpha-mannosidase assay; assay type: biochemical; conditions: pH 6.0, 37° C., 30 minutes, p-nitrophenyl-alpha-D-mannopyranoside substrate; read-out: D50 Values (Inhibition), J.B. mannosidase (converted)
T1 sequence (C0HJB3 1-981): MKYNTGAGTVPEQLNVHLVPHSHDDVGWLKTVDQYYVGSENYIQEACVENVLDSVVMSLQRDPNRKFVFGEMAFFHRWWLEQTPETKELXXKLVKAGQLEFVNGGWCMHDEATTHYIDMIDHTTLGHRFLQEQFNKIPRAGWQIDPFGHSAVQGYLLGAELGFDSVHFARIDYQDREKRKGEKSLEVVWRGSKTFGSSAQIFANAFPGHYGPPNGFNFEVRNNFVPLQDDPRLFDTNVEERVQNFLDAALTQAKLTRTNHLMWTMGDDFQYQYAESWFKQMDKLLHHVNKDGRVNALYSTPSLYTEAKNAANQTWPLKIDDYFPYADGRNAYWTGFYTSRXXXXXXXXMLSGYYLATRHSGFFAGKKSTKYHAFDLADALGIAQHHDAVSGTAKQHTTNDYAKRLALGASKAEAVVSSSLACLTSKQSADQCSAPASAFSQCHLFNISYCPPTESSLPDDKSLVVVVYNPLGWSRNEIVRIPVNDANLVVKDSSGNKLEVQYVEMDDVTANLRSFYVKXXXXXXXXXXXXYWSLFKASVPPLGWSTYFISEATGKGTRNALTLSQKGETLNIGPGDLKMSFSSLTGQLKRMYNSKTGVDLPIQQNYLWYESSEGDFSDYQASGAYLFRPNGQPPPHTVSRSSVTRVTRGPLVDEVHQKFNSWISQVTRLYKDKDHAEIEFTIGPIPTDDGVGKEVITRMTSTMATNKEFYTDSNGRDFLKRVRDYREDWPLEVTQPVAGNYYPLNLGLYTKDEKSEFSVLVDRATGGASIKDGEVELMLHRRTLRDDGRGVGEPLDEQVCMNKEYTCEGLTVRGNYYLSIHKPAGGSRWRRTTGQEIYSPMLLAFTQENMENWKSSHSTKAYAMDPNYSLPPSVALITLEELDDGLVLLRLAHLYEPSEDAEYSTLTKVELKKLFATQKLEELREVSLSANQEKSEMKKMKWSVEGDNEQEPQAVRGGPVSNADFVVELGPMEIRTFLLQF
Experimental: Jack Bean alpha-Mannosidase Assay. […] A volume (37.5 ul) of 0.05M sodium acetate (pH 6.0) was added to each well, followed by 37.5 ul of 0.01M p-nitrophenyl-alpha-D-mannopyanoside, and then 10 ul of a 1:400 dilution of Jack Bean alpha-mannosidase. After thoroughly shaking to mix, the mixture was incubated at 37° C. for 30 minutes. The reaction was stopped by the addition of 150 ul of 0.5M sodium carbonate (pH 10.0). The absorbance at 405 nm of the solution in the wells was determined in an ELISA plate reader.

bone marrow cells [4] = test: In vivo bone marrow CFU formation and cellularity, time course (kinetic experiments); parameters: species or system C57BL/6 mice; conditions: 10 μg twice daily i.p.
From the text: as §1

[5] = Expt. 1, 10 μg twice daily i.p.
[6] = Expt. 1, 20 μg twice daily i.p.
[7] = Expt. 1, 40 μg twice daily i.p.

Compound: O=C(O[C@@H]1CN2CCC[C@@H](O)[C@@H]2[C@@H]1O)c1ccccc1 [Compound 5, 1S-8a-β-2-alpha-benzoyloxyoctahydroindolizine-1-alpha-8-β-diol]
- Mean of CFU Formation (bone marrow cells [1]; Expt. 1, 5 μg twice daily i.p.): 200 CFU
- Mean of Cellularity (bone marrow cells [1]; Expt. 1, 5 μg twice daily i.p.): 2.91 × 10^7
- Mean of CFU Formation (bone marrow cells [1]; [5]): 324 CFU
- Mean of Cellularity (bone marrow cells [1]; [5]): 5.76 × 10^7
- Mean of CFU Formation (bone marrow cells [1]; [6]): 293 CFU
- Mean of Cellularity (bone marrow cells [1]; [6]): 3.07 × 10^7
- Mean of CFU Formation (bone marrow cells [1]; [7]): 287 CFU
- Mean of Cellularity (bone marrow cells [1]; [7]): 3.07 × 10^7
- Mean of Cellularity (bone marrow cells [1]; Expt. 2, 5 μg twice daily i.p.): 3.33 × 10^7
- Mean of Cellularity (bone marrow cells [1]; Expt. 2, 10 μg twice daily i.p.): 4.76 × 10^7
- Mean of Cellularity (bone marrow cells [1]; Expt. 2, 20 μg twice daily i.p.): 3.38 × 10^7
- Effect on bone marrow cellularity and CFU formation (summary) (bone marrow cells [1]; summary of experiments): Stimulates CFU & cellularity
- IC50 [2]: 0.5 µg/mL (≈ 1.8 µM)
- IC50 [3]: 252 µM
- Mean of CFU Formation (bone marrow cells [4]; 1 day): 250 CFU
- Mean of Cellularity (bone marrow cells [4]; 1 day): 3.00 × 10^7
- Mean of CFU Formation (bone marrow cells [4]; 2 days): 436 CFU
- Mean of Cellularity (bone marrow cells [4]; 2 days): 4.18 × 10^7
- Mean of CFU Formation (bone marrow cells [4]; 3 days): 568 CFU
- Mean of Cellularity (bone marrow cells [4]; 3 days): 5.59 × 10^7
- Mean of CFU Formation (bone marrow cells [4]; 4 days): 623 CFU
- Mean of Cellularity (bone marrow cells [4]; 4 days): 7.42 × 10^7
- Mean of CFU Formation (bone marrow cells [4]; 5 days): 621 CFU
- Mean of Cellularity (bone marrow cells [4]; 5 days): 6.88 × 10^7
- Mean of CFU Formation (bone marrow cells [4]; 6 days): 518 CFU
- Mean of Cellularity (bone marrow cells [4]; 6 days): 5.24 × 10^7
